{"source": "paper PMC11879692", "about": "“PDE4 inhibitor rolipram represses hedgehog signaling via ubiquitin-mediated proteolysis of GLI transcription factors to regress breast cancer” (The Journal of Biological Chemistry, 2025)", "key": {"MCF-7 cells": {"test_system": "MCF-7 cells", "test": "Western blot analysis of protein expression", "format": "cell-based, human", "description": "(§1) After treatment of cells with rolipram, proteins were extracted from cells by lysing the cells with radioimmunoprecipitation assay buffer, comprising of 150 mM NaCl, 1% Triton X-100, 0.5% sodium deoxycholate, and 0.1% SDS. Equal amount of proteins (40 μg) were resolved using SDS-PAGE before transferring onto nitrocellulose membrane (Immobilon-NC Transfer Membrane; Merck Millipore; catalog no.: HATF00010). The membranes were then incubated overnight with primary antibody at a dilution of 1:1000 at 4°C followed by incubation with secondary antibodies at a dilution of 1:5000 for 2 h at room temperature. Immune detection was performed using femtoLUCENT PLUS-HRP (G-Biosciences; catalog no.: 786-003), and the image was obtained from the Bio-Rad ChemiDoc XRS+ system. Analysis of protein expression was carried out using Bio-Rad Image Lab software (RRID: SCR_014210) and National Institutes of Health ImageJ software ([34]) (RRID: SCR_003070). All protein expressions were normalized against β-tubulin (loading control)."}, "MDA-MB-231 cells": {"test_system": "MDA-MB-231 cells", "test": "Western blot analysis of protein expression", "format": "cell-based, human", "description": "as §1"}, "[1]": {"test_system": "4T1 mice breast carcinoma cells, mammary fat pad tumor", "test": "Solid tumor in mice, tumor weight and volume", "format": "in vivo, BALB/c mice", "details": "vs untreated tumor", "description": "(§2) Solid tumors were developed in BALB/c mice (n = 3) except the control group (group I) by injecting 1 × 10^4 viable 4T1 (RRID: CVCL_0125) mice breast carcinoma cells (resuspended in 50 μl of PBS) into the inguinal fourth mammary fat pad, and the tumor was allowed to develop for 14 days ([37], [38]). Mice were randomly divided into three groups, viz., untreated tumor (group II), mice treated intraperitoneally with 1 mg//kg bodyweight of rolipram (group III), and mice receiving 5 mg/kg bodyweight of rolipram, intraperitoneally (group IV) ([39], [40]). After 14 days, the mice were sacrificed. Lung, kidney, liver, serum, and the tumors were collected for further experiments ([15]).\nWeight of mammary fat pad of mice from group I and weight of tumors from groups II, III, and IV were measured using digital fine balance. Width and length of the tumors obtained from mice of groups II, III, and IV were measured using digital Vernier caliper. The volume was measured by the formula V = half × (W × W × L), where V is the volume, W is the width, and L is the length of the tumors ([15], [41])."}, "GLI1": {"test_system": "GLI1", "test": "Immunohistochemistry of tumor tissue, GLI1", "format": "in vivo, BALB/c mice", "description": "as §2\nMice mammary fat pad and mammary tumor tissues were processed as for histology, and 5 μm-thick sections were mounted on glass slides. The tissue sections were deparaffinized with xylene and hydrated with […] grades of alcohols (100% to 70%). Rehydrated sections were equilibrated in PBS. Antigen retrieval was performed by boiling the sections in a 0.1 M sodium citrate buffer (pH 6.0) for 10 min. […] The frequency (cell count) of positive and negative cells as well as the mean absorbance of the positive cells were plotted using MatPlotLib (RRID: SCR_008624), a Python (RRID: SCR_008394) 2D plotting library."}, "[2]": {"details": "MDA-MB-231, IC50 dose, time course"}, "[3]": {"details": "1 mg/kg bodyweight i.p., 14 days of treatment"}, "[4]": {"details": "5 mg/kg bodyweight i.p., 14 days"}}}
{"compound": "COc1ccc(C2CNC(=O)C2)cc1OC1CCCC1", "note": "(stereo not shown) [rolipram, Rolipram]", "values": [{"measurement": "reduction of MMP9 expression", "setting": "MCF-7 cells; MCF-7 (hormone-responsive cells), 48 h", "value": "fourfold"}, {"measurement": "downregulation of expression of MMP2", "setting": "MCF-7 cells; MCF-7, IC50 dose", "value": "twofold"}, {"measurement": "levels of phospho-Akt", "setting": "MCF-7 cells; MCF-7, IC50 dose", "value": "reduced"}, {"measurement": "levels of phosphorylated-GSK3β", "setting": "MCF-7 cells; MCF-7, IC50 dose", "value": "reduced levels"}, {"measurement": "level of GLI2FL", "setting": "MCF-7 cells; MCF-7, IC50 dose, time course", "value": "remained unchanged"}, {"measurement": "level of GLI2R", "setting": "MCF-7 cells; MCF-7, IC50 dose, time course", "value": "increased with time"}, {"measurement": "level of GLI3R", "setting": "MCF-7 cells; MCF-7, IC50 dose, time course", "value": "increased with time"}, {"measurement": "levels of PKA", "setting": "MCF-7 cells; MCF-7, IC50 dose, time course", "value": "increased levels"}, {"measurement": "level of GLI1", "setting": "MCF-7 cells; MCF-7, IC50 dose, time-dependent", "value": "reduced"}, {"measurement": "elevated expression of PTEN", "setting": "MCF-7 cells; MCF-7, IC50 dose, within 12 h", "value": "threefold"}, {"measurement": "levels of vimentin", "setting": "MCF-7 cells; MCF-7, after 48 h", "value": "decrease"}, {"measurement": "levels of GLI proteins", "setting": "MCF-7 cells; MCF-7, cotreatment with H89 (10 μM), 24 h, vs control and H89 only", "value": "unaltered"}, {"measurement": "repressor forms of GLI2 and GLI3", "setting": "MCF-7 cells; MCF-7, in combination with TAK-243 (0.1 μM), 24 h", "value": "failed to produce the repressor forms"}, {"measurement": "effects on expressions of MMPs, E-cadherin, and vimentin", "setting": "MCF-7 cells; MCF-7, in the presence of TAK-243", "value": "failed to exert any of the aforementioned effects"}, {"measurement": "elevation of level of E-cadherin", "setting": "MCF-7 cells; MCF-7, within 24 h", "value": "twofold"}, {"measurement": "reduction of MMP9 expression", "setting": "MDA-MB-231 cells; MDA-MB-231 (TNBC cells)", "value": "twofold"}, {"measurement": "downregulation of expression of MMP2", "setting": "MDA-MB-231 cells; MDA-MB-231, IC50 dose", "value": "twofold"}, {"measurement": "levels of phospho-Akt", "setting": "MDA-MB-231 cells; MDA-MB-231, IC50 dose", "value": "reduced"}, {"measurement": "levels of phosphorylated-GSK3β", "setting": "MDA-MB-231 cells; MDA-MB-231, IC50 dose", "value": "reduced levels"}, {"measurement": "level of GLI2R", "setting": "MDA-MB-231 cells; MDA-MB-231, IC50 dose, 48 h", "value": "decreased slightly"}, {"measurement": "level of GLI2FL", "setting": "MDA-MB-231 cells; [2]", "value": "significantly decreased with time"}, {"measurement": "level of GLI3R", "setting": "MDA-MB-231 cells; [2]", "value": "increased with time"}, {"measurement": "levels of PKA", "setting": "MDA-MB-231 cells; [2]", "value": "increased levels"}, {"measurement": "level of GLI1", "setting": "MDA-MB-231 cells; MDA-MB-231, IC50 dose, time-dependent", "value": "reduced"}, {"measurement": "level of GLI2R", "setting": "MDA-MB-231 cells; MDA-MB-231, IC50 dose, up to 24 h", "value": "increased up to 24 h"}, {"measurement": "elevated expression of PTEN", "setting": "MDA-MB-231 cells; MDA-MB-231, IC50 dose, within 12 h", "value": "threefold"}, {"measurement": "level of E-cadherin", "setting": "MDA-MB-231 cells; MDA-MB-231, after 24 h", "value": "no conclusive change"}, {"measurement": "levels of vimentin", "setting": "MDA-MB-231 cells; MDA-MB-231, after 48 h", "value": "decrease"}, {"measurement": "levels of GLI proteins", "setting": "MDA-MB-231 cells; MDA-MB-231, cotreatment with H89 (10 μM), 24 h, vs control and H89 only", "value": "unaltered"}, {"measurement": "repressor forms of GLI2 and GLI3", "setting": "MDA-MB-231 cells; MDA-MB-231, in combination with TAK-243 (0.1 μM), 24 h", "value": "failed to produce the repressor forms"}, {"measurement": "effects on expressions of MMPs, E-cadherin, and vimentin", "setting": "MDA-MB-231 cells; MDA-MB-231, in the presence of TAK-243", "value": "failed to exert any of the aforementioned effects"}, {"measurement": "reduction of tumor volume", "setting": "[1]; [3]", "value": "twofold"}, {"measurement": "reduction of tumor weight", "setting": "[1]; [3]", "value": "twofold"}, {"measurement": "reduction of tumor volume", "setting": "[1]; [4]", "value": 2.8, "unit": "fold"}, {"measurement": "reduction of tumor weight", "setting": "[1]; [4]", "value": 3.4, "unit": "fold"}, {"measurement": "reduction of GLI1 expression in tumor tissue", "setting": "GLI1; 1 mg/kg bodyweight", "value": "twofold"}, {"measurement": "reduction of GLI1 expression in tumor tissue", "setting": "GLI1; 5 mg/kg bodyweight", "value": "sixfold"}]}
